The values below come from ChEMBL document CHEMBL5214942, “Discovery of biphenyls bearing thiobarbiturate fragment by structure-based strategy as Mycobacterium tuberculosis protein tyrosine phosphatase B inhibitors” (Bioorg Med Chem, 2022).

In series [1] the target is T1, Phosphotyrosine-protein phosphatase PTPB (Mycobacterium tuberculosis) (UniProt P96830).
T1 sequence (whole entry): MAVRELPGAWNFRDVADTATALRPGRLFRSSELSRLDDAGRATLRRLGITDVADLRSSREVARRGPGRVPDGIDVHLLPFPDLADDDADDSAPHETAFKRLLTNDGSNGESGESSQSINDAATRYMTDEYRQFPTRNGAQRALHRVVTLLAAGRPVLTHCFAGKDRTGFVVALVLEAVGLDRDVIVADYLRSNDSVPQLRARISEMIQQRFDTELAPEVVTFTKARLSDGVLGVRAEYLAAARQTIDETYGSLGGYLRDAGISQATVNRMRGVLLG
The series is described as follows: Inhibition of recombinant Mycobacterium tuberculosis H37Rv MptpB using pNPP as substrate incubated for 10 mins at 50 uM and measured by spectrophotometric method relative to control.

A short description of series [2]: Cytotoxicity against mouse J774.A1 cells after 48 hrs by MTT assay. The series is classed as toxicity, cell-based. In general terms: Tetrazolium assays rely on reduction of a dye to a coloured formazan, in cell work by metabolically active cells.
Series [3] can be described thus: Cytotoxicity against African green monkey Vero cells after 48 hrs by MTT assay. In kind it is toxicity, cell-based. The conditions noted are these: African green monkey (Chlorocebus sabaeus).
In series [4] the test system is Mycobacterium tuberculosis. The series is described as follows: Antimycobacterial activity against Mycobacterium tuberculosis H37Rv measured by microplate alamar blue assay. The series is classed as functional. (In general: Resazurin is reduced to fluorescent resorufin, in cell work by metabolically active cells.)
Series [5] concerns the target T2, Phosphotyrosine-protein phosphatase PTPB (Mycobacterium tuberculosis, UniProt P96830).
T2 sequence (P96830 whole entry): T1 sequence (whole entry)
The series is described as follows: Inhibition of recombinant Mycobacterium tuberculosis H37Rv MptpB using pNPP as substrate incubated for 10 mins and measured by spectrophotometric method.

For series [6], the target named is T3, Tyrosine-protein phosphatase non-receptor type 1 (Homo sapiens) (UniProt P18031).
T3 sequence (whole entry): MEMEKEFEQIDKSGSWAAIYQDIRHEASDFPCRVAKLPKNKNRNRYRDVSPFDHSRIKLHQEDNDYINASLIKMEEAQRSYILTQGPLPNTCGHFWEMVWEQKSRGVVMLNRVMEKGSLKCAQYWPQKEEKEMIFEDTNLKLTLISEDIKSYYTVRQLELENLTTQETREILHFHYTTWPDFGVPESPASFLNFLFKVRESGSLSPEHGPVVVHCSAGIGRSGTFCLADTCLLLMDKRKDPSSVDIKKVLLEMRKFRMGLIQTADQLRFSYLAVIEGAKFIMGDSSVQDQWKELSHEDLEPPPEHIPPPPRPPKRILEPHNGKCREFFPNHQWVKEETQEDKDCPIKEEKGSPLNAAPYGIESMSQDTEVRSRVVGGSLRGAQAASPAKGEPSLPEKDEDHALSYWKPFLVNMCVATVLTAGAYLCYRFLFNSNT
The series is described as follows: Inhibition of recombinant human PTP1B using pNPP as substrate preincubated for 5 mins followed by substrate addition assessed as reduction in p-nitrophenol release at 50 uM relative to control.

Series [7] concerns the target T4, Low molecular weight protein-tyrosine phosphatase A (Mycobacterium tuberculosis) (UniProt P9WIA1).
T4 sequence (whole entry): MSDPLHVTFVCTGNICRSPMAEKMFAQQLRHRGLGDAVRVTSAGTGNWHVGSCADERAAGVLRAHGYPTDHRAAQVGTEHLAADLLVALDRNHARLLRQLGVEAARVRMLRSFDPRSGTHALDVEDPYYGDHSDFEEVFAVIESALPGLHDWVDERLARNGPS
As to the kind of experiment: Inhibition of recombinant Mycobacterium tuberculosis H37Rv MptpA using pNPP as substrate at 50 uM incubated for 10 mins and measured by spectrophotometric method relative to control.

Series [8] deals with T5, Tyrosine-protein phosphatase non-receptor type 1 (Homo sapiens, UniProt P18031).
T5 sequence (P18031 whole entry): T3 sequence (whole entry)
The series is described as follows: Inhibition of recombinant human PTP1B using pNPP as substrate preincubated for 5 mins followed by substrate addition assessed as reduction in p-nitrophenol release.

The target in series [9] is T6, Low molecular weight protein-tyrosine phosphatase A (Mycobacterium tuberculosis, UniProt P9WIA1).
T6 sequence (P9WIA1 whole entry): T4 sequence (whole entry)
As to the kind of experiment: Inhibition of recombinant Mycobacterium tuberculosis H37Rv MptpA using pNPP as substrate incubated for 10 mins and measured by spectrophotometric method.

Series [10] deals with Mycobacterium tuberculosis. As to the kind of experiment: Antimycobacterial activity against Mycobacterium tuberculosis infected in mouse J774.A1 cells assessed as reduction in intracellular bacterial burden at 5 ug/ml measured by colony counting method. In kind it is functional. Details: scale not given: the % may be the effect or the level left. The settings on record: dose 5 µg/ml.

In series [11] the test system is Mycobacterium tuberculosis. The series is described as follows: Antimycobacterial activity against Mycobacterium tuberculosis infected in mouse J774.A1 cells assessed as reduction in intracellular bacterial burden at 1 to 10 ug/ml measured by colony counting method. The conditions noted are these: dose 1-10 µg/ml. In kind it is functional, organism-based.
Series [12] addresses T2, Phosphotyrosine-protein phosphatase PTPB. As to the kind of experiment: Non-competitive inhibition of recombinant Mycobacterium tuberculosis H37Rv MptpB using pNPP as substrate.

Values after ≈ are worked out from the molar mass of the structure shown. Active and inactive are the calls of the source. The rule behind the calls is not given here.

In general, inhibition refers to the change of the read-out against control, counted positive when it falls. Broadly, the IC50 is the concentration that inhibits the measured activity by half. For orientation: MIC means the least concentration at which growth counts as inhibited. In general, Ki refers to the equilibrium dissociation constant of an inhibitor or competing ligand from its target.

With `CN1C(=O)C(=Cc2cc(-c3cc(Cl)c(O)c(Cl)c3)ccc2OCc2ccc(Cl)cc2)C(=O)N(C)C1=O`, in [1], the inhibition came out at 51.9%.
Consider `CO[C@H]1/C=C/O[C@@]2(C)Oc3c(C)c(O)c4c(O)c(c(/C=N/N5CCN(C)CC5)c(O)c4c3C2=O)NC(=O)/C(C)=C\C=C\[C@H](C)[C@H](O)[C@@H](C)[C@@H](O)[C@@H](C)[C@H](OC(C)=O)[C@@H]1C` [RIFAMPIN], for which the IC50 at 48 h in [2] and in series [3] was over 64 µg/mL in each case. Also, the lowest concentration to inhibit growth in series [4] (MIC) was 0.037 µg/mL (≈ 0.045 µM).
As for `O=C(C(c1ccccc1)S(=O)(=O)O)N1CCCC2CCCCC21` (configuration not stated), in series [5], the IC50 amounted to 0.018 µM.
`O=C1NC(=S)NC(=O)C1=Cc1ccc(OCc2ccc(Cl)cc2)c(-c2cc(Cl)c(O)c(Cl)c2)c1`: the IC50 at 48 h in series [2] was 13.9 µg/mL (≈ 26 µM); in series [3], over 64 µg/mL. In addition, the inhibition in series [1] worked out at 84.4%; in [6], 98.2%; in series [7] it was 69.6%. The IC50 is 3.43 µM in series [8] and 5.95 µM in series [5]. Moreover, the MIC in series [4] is over 32 µg/mL.
With `O=C1NC(=S)NC(=O)C1=Cc1cc(-c2ccc3occc(=O)c3c2)ccc1OCc1ccc(Cl)cc1`, the inhibition in series [1] was 73%.
Consider `O=C1NC(=O)C(=Cc2cc(-c3cc(Cl)c(O)c(Cl)c3)ccc2OCc2ccc(Cl)cc2)C(=O)N1`, for which the inhibition in [1] stood at 16.2%.
Still for that read-out and setting: the value for `O=C1NC(=S)NC(=O)C1=Cc1cc(-c2ccc(Cl)cc2)ccc1OCc1ccc(Cl)cc1` was 77.5%.
On to `NNC(=O)c1ccncc1` [ISONIAZID], for which the IC50 at 48 h in [2] and in series [3] was over 64 µg/mL each time. Also, the MIC in series [4] worked out at 0.072 µg/mL (≈ 0.525 µM).
Regarding `O=C1NC(=S)NC(=O)C1=Cc1cc(Br)ccc1OCc1ccc(Cl)cc1`, the inhibition in series [1] worked out at 63%. In series [5], the half-maximal inhibitory concentration (IC50) was determined as 22.4 µM.
For the molecule `O=C1NC(=S)NC(=O)C1=Cc1c(OCc2ccc(Cl)cc2)cccc1-c1cc(Cl)c(O)c(Cl)c1`, the inhibition in series [1] came out at 45.5%.
Still for that read-out and setting: the value for `Cc1cc(-c2ccc(OCc3ccc(Cl)cc3)c(C=C3C(=O)NC(=S)NC3=O)c2)cc(C)c1O` was 59.2%.
Consider `C/C=C(\C)[C@@H]1C(C)=C[C@@H]2CC(C)=CC[C@H]2[C@@H]1/C=C/C=C(\C)[C@@H](O)[C@@H](C)C(=O)O`, for which the IC50 in [5] was 1.05 µM.
With `O=C1NC(=S)NC(=O)C1=Cc1cc(-c2ccc(O)c(F)c2)ccc1OCc1ccc(Cl)cc1`, in series [1], the inhibition was determined as 65%.
As to `O=C1NC(=S)NC(=O)C1=Cc1cc(-c2cc(Cl)c(O)c(Cl)c2)ccc1OCc1cc(F)cc(F)c1`, the values for the IC50 at 48 h in series [2] and in series [3] were 15.4 µg/mL (≈ 28.8 µM) and over 64 µg/mL, respectively. Moreover, the inhibition in [1] is 89.1%; in series [6], 92.3%. In addition, the IC50 in [8] was determined as 6.28 µM; in series [5], 5.32 µM. The molecule further showed an MIC in series [4] of over 32 µg/mL.
Take `O=C1NC(=S)NC(=O)C1=Cc1cc(-c2cc(Cl)c(O)c(Cl)c2)ccc1OCc1ccccc1`: the IC50 at 48 h in [2] is 3.44 µg/mL (≈ 6.89 µM); in series [3] it was over 64 µg/mL. For the same molecule, the inhibition came to 95.4% in series [1], 87.7% in [6] and 14.6% in series [7]. Further, the IC50 came out at 27.3 µM in series [8] and 3.81 µM in series [5]. In series [4], this molecule gave an MIC of 25.1 µg/mL (≈ 50.2 µM).
Take `O=C1NC(=S)NC(=O)C1=Cc1ccc(OCc2ccc(Cl)cc2)cc1-c1cc(Cl)c(O)c(Cl)c1`: the IC50 at 48 h in series [2] is 57 µg/mL (≈ 107 µM); in series [3], over 64 µg/mL. Also, the inhibition in [1] worked out at 95%; in series [6], 78.6%; in [7], 49%. Further, the IC50 came to 34.1 µM in series [8] and 3.62 µM in series [5]. Moreover, the MIC in series [4] is over 32 µg/mL.
Take `O=C1NC(=S)NC(=O)C1=Cc1cc(-c2ccc(O)c(Cl)c2)ccc1OCc1ccc(Cl)cc1`: the inhibition in [1] was 72.7%.
With `O=C1NC(=S)NC(=O)C1=Cc1cc(-c2cc(Cl)c(O)c(Cl)c2)ccc1OCc1ccc(Cl)cc1`, the IC50 at 48 h in series [2] was 13 µg/mL (≈ 24.4 µM); in series [3], over 64 µg/mL. The inhibition in series [1] was found to be 95.9%; in series [6], 98.3%; in series [7], 86.4%. For the same molecule, the values for the IC50 in [9], in series [8] and in series [5] were 8.97 µM, 5.16 µM and 1.18 µM, respectively. The Activity in series [10] is 90%. Moreover, in series [11], the result was Active. For the same molecule, the Ki in [12] is 1010 nM. In [4], the MIC is over 32 µg/mL.
`CN1C(=O)C(=Cc2cc(-c3cc(Cl)c(O)c(Cl)c3)ccc2OCc2ccc(Cl)cc2)C(=O)N(C)C1=S`: the inhibition in series [1] turned out to be 87%. Also, in series [5], the IC50 is 14.1 µM.
`O=C1NC(=S)NC(=O)C1=Cc1cc(-c2ccccc2)ccc1OCc1ccc(Cl)cc1`: in series [1], the inhibition worked out at 43.9%.
Take `O=C1NC(=S)NC(=O)C1=Cc1cc(OCc2ccc(Cl)cc2)cc(-c2cc(Cl)c(O)c(Cl)c2)c1`: the results for the IC50 at 48 h in series [2] and in series [3] were 39.9 µg/mL (≈ 74.7 µM) and over 64 µg/mL, respectively. Moreover, the inhibition in series [1] was determined as 91.6%; in series [6], 93.7%; in series [7], 39.7%. The IC50 in [8] is 7.81 µM; in [5], 4.7 µM. The molecule further displayed an MIC in series [4] of over 32 µg/mL.
On to `O=C1NC(=S)NC(=O)C1=Cc1cc(-c2ccc(C(F)(F)F)cc2)ccc1OCc1ccc(Cl)cc1`, for which the IC50 at 48 h in series [2] was 14.8 µg/mL (≈ 28.6 µM); in series [3], over 64 µg/mL. The inhibition in [1] stood at 86.4%; in series [6], 81.4%; in series [7], 74.2%. Moreover, the IC50 in series [9] came to 20 µM; in [8], 3.93 µM; in [5], 3.82 µM. The MIC in series [4] was over 32 µg/mL.
Consider `COc1ccc(-c2ccc(OCc3ccc(Cl)cc3)c(C=C3C(=O)NC(=S)NC3=O)c2)cc1`, for which the inhibition in [1] worked out at 42.7%.
Turning to `Cc1onc(C(=O)O)c1-c1cccc(-c2cc(Cl)c(O)c(Cl)c2)c1`, the IC50 in [5] amounted to 2.98 µM.
Turning to `COC(=O)c1ccc(-c2ccc(OCc3ccc(Cl)cc3)c(C=C3C(=O)NC(=S)NC3=O)c2)cc1`, the inhibition in series [1] was determined as 63.3%.
Regarding `O=C1NC(=S)NC(=O)C1=Cc1cc(-c2ccc(OC(F)(F)F)cc2)ccc1OCc1ccc(Cl)cc1`, the inhibition in series [1] amounted to 65%.
Still for that read-out and setting: the value for `O=C1NC(=S)NC(=O)C1=Cc1ccc(-c2cc(Cl)c(O)c(Cl)c2)c(OCc2ccc(Cl)cc2)c1` was 75.2%.
As for `O=C1NC(=S)NC(=O)C1=Cc1cc(-c2cc3ccccc3s2)ccc1OCc1ccc(Cl)cc1`, the inhibition in series [1] came out at 57.5%.
